The results in this text go back to PMC11796317, “Fragment Discovery by X‐Ray Crystallographic Screening Targeting the CTP Binding Site of Pseudomonas Aeruginosa IspD” (Angewandte Chemie (International Ed. in English), 2025).

First the molecules themselves.
T1: PaIspD (Pseudomonas aeruginosa, UniProt P57707)
T1 construct: His6 (N, cleaved yes); made in house; host or cells: Escherichia coli BL21 (DE3), pET28
T1 sequence (P57707 1-234): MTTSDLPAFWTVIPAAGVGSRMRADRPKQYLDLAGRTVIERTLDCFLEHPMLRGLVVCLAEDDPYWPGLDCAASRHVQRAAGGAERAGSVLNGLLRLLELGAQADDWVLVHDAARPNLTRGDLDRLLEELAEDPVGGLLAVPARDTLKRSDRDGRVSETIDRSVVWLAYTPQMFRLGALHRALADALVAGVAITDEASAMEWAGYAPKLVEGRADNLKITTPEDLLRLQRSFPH

B1: PaIspD (Pseudomonas aeruginosa PAO1) (protein)
chain: T1 sequence (P57707 1-234)
notes: His6 (N, cleaved yes); made in house; host or cells: Escherichia coli BL21 (DE3), pET28

Substrate in one data set: C[C@](O)(CO)[C@H](O)COP(=O)(O)O
The data set is described as follows: Determination of enzyme kinetics (Michaelis constants of substrates, LC-MS). It counts as biochemical, Pseudomonas aeruginosa. The settings on record: other: substrate of PaIspD, 50 nM PaIspD, 37 °C, 40 minutes, pH 7.6. The procedure: (§1) Determination of enzyme kinetics
(§2) Table S1. Michaelis constants for MEP and CTP of PaIspD.
(§3) Substrate Km (mM) Vmax (AU/min-1)
(§4) Determination of enzyme kinetics. The assay was conducted as published before. To determine the Km values for CTP and MEP with PaIspD, substrate concentrations (0.016–2 mM) were prepared in a 96-well plate. Each well contained 100 μL of reaction mix with Buffer A (100 mM Tris-HCl pH 7.6, 1 mM DTT, 1 mM MgCl2) and 50 nM PaIspD. Serial dilutions of CTP or MEP were performed, and reactions were initiated by adding Buffer B (100 mM Tris-HCl pH 7.6, 1 mM DTT, 1 mM MEP or CTP). Plates were incubated at 37 °C for 40 minutes, denatured at 95 °C for 5 minutes, and centrifuged at 4000 rpm at 4 °C. Supernatants (10 μL) were mixed with an 190 μL ice-cold 3:1:1 ACN, isopropanol, water mixture containing 100 nM 4-methyl-1-oxo-1-(p-tolylamino)pentane-2-sulfonic acid, adenylyl-imidodiphosphate and adenosine-5′- [(α,β)-methyleno]triphosphate as internal standard. After centrifugation at 4000 rpm at 4 °C for 5 min, a 50 μL aliquot was transferred to an LC-MS plate for analysis. Peak areas were used to calculate Michaelis–Menten kinetics using GraphPad Prism v9. Measurements were done in duplicates and repeated in two independent experiments.
Figure S1: Kinetic parameters of PaIspD substrates (MEP, left and CTP, right). […]
Consider B1, for which the Michaelis constant (Km) is 210 ± 100 µM.

In another data set the target is T1, PaIspD. The experiment in a line: 1H-STD NMR and competition STD NMR with CTP. The data set is classed as binding. The settings on record: 1 mM 2, 10 mM CTP, 10 µM PaIspD. An excerpt: To further validate the occurrence of interactions taking place between the fragment and PaIspD, we referred to ^1H‐STD NMR spectroscopy, a commonly used technique for this purpose.[10, 11] We conducted this experiment in a HEPES buffer in D2O with a 100‐fold excess of 2 compared to PaIspD. In the corresponding difference spectrum, we identified all proton signals previously observed in the ^1H NMR spectrum of 2 (see Figure S2 and S3 in the Supporting Information). […] We further noted the magnitude of amplification of the signals as the efficiency of saturation transfer scales with distance, enabling us to gain an idea about the proximity of each proton to the protein surface.[12] Among all protons, those in position iii (Figure 4) clearly received a surplus in saturation transfer relative to the other ones, whereas the protons positioned on the pyridyl ring (i, Figure 4) and the protons in position ii (Figure 4) received both less amplification with the latter receiving the least amount (Figure 4). […]
The 1H-STD-NMR experiment was recorded at 25 °C with 512 scans on a Bruker Avance Neo 500 MHz spectrometer with prodigy cryoprobe system. […]
With `CN1Cc2cccnc2C1=O` [Compound 2], the “Competition STD NMR with CTP” value was “STD signals of 2 disappeared”.

Staying with this data set, now noted: HEPES buffer in D2O, 100-fold excess of 2 compared to PaIspD.
Turning to `CN1Cc2cccnc2C1=O` [Compound 2], the “1H-STD NMR interaction with PaIspD” value was “came into close proximity of the protein”.

In another data set the target is T1, PaIspD. The data set is described as follows: Determination of enzyme kinetics (Michaelis constants of substrates, LC-MS). It counts as biochemical. The settings on record: substrate of PaIspD; 50 nM PaIspD, 37 °C, 40 minutes. As for the experimental part:
as §1, §2, §3, §4
Figure S1: Kinetic parameters of PaIspD substrates (MEP, left and CTP, right). Each data point reflects the mean ± SD obtained from two-independent […]
Turning to `C[C@](O)(CO)[C@H](O)COP(=O)(O)O` [MEP, 2‐C‐methylerythritol‐D‐erythritol‐4‐phosphate], the Vmax turned out to be 0.30 ± 0.0 AU/min-1.

On to `Nc1ccn([C@@H]2O[C@H](COP(=O)(O)OP(=O)(O)OP(=O)(O)O)[C@@H](O)[C@H]2O)c(=O)n1` [CTP], for which the Km was 200 ± 100 µM and the Vmax stood at 0.30 ± 0.01 AU/min-1.

The target of another data set is T1, PaIspD. The experiment in a line: Microscale thermophoresis (MST) with dyed PaIspD. It counts as binding. The settings on record: -log KD, supplement sheet, CORRECTED VALUES. As for the experimental part: The microscale thermophoresis (MST) (Serial no. 201709-BR-N024, Monolith NT.115 Micro Scale Thermophoresis, NanoTemper Technologies GmbH.) was performed using dyed PaIspD, labeled according to the standard protocol from the manufacturer NanoTemper Technologies GmbH Protein Labeling Kit Red-NHS, 2nd Generation. A 2 mM ligand solution containing 10% DMSO was prepared (Solution I). A 200 µl solution of 10% DMSO containing buffer solution was prepared (Solution II). The buffer used was HEPES (50 mM), MgCl2 (5 mM) and Tween (0.05%) at pH 7.6 for all compounds. To PCR tubes 2-16, 10 µl of solution II was added. To tube 1, 20 µl of solution I was added. 10 µl from tube 1 was add to tube 2 and mixed. This was continued until tube 16. To each tube, 10 µL of the protein dye mixture was added and mixed. The mixture was allowed to incubate at room temperature for 5 minutes. Non-hydrophobic capillary tubes were used for measurement. Each sample was measured and analyzed in MO Control version 1.6.
The molecule `CN(C(=O)c1ccon1)C1c2cccnc2C(=O)N1C` (stereo not drawn) [Compound 11] showed a Kd of 0.000502 M.

As to `COC(=O)N(C)C1c2cccnc2C(=O)N1C` (stereo not drawn) [Compound 7], the affinity, expressed as Kd, was 0.000454 M.

In turn, `O=C1c2ncccc2CN1Cc1ccccc1` [Compound 4] showed a dissociation constant (Kd) of 0.000133 M.

Turning to `CN1Cc2cccnc2C1=O` [Compound 2], the dissociation constant Kd was 0.000939 M.

Still in this data set, the particulars now being: -log KD, supplement sheet, PUBLISHED VALUES.
Consider `CN(C(=O)c1ccon1)C1c2cccnc2C(=O)N1C` (stereo not drawn) [Compound 11], for which the equilibrium dissociation constant (Kd) is 0.000502 M.

`COC(=O)N(C)C1c2cccnc2C(=O)N1C` (stereo not drawn) [Compound 7]: the Kd was 0.000454 M.

Molecule `O=C1c2ncccc2CN1Cc1ccccc1` [Compound 4] had a Kd of 0.000133 M.

In turn, `CN1Cc2cccnc2C1=O` [Compound 2] gave a Kd of 0.000939 M.

The same data set, now with this note: MST Kd, n=2, mean±SD; HEPES 50 mM, MgCl2 5 mM, Tween 0.05%, pH 7.6.
Molecule `CN(C(=O)c1ccon1)C1c2cccnc2C(=O)N1C` (stereo not drawn) [Compound 11] gave a Kd of 0.000502 ± 5.6e-05 M.

In turn, `COC(=O)N(C)C1c2cccnc2C(=O)N1C` (stereo not drawn) [Compound 7] displayed an equilibrium dissociation constant (Kd) of 0.000454 ± 2.7e-05 M.

The molecule `O=C1c2ncccc2CN1Cc1ccccc1` [Compound 4] returned a dissociation constant (Kd) of 0.000133 ± 1.2e-05 M.

The same data set, now with this note: kd (M), supplement sheet, CORRECTED VALUES.
`CN(C(=O)c1ccon1)C1c2cccnc2C(=O)N1C` (stereo not drawn) [Compound 11] registered a Kd of 0.000502 M.

`COC(=O)N(C)C1c2cccnc2C(=O)N1C` (stereo not drawn) [Compound 7] returned a Kd of 0.000454 M.

For `O=C1c2ncccc2CN1Cc1ccccc1` [Compound 4], the dissociation constant Kd turned out to be 0.000133 M.

`CN1Cc2cccnc2C1=O` [Compound 2] displayed a Kd of 0.000939 M.

Still in this data set, the particulars now being: kd (µM), supplement sheet, CORRECTED VALUES; MST Kd.
`CN(C(=O)c1ccon1)C1c2cccnc2C(=O)N1C` (stereo not drawn) [Compound 11] came in with a dissociation constant Kd of 0.000502 M.

`COC(=O)N(C)C1c2cccnc2C(=O)N1C` (stereo not drawn) [Compound 7] registered a Kd of 0.000454 M.

For the molecule `O=C1c2ncccc2CN1Cc1ccccc1` [Compound 4], the affinity, expressed as Kd, was 0.000133 M.

`CN1Cc2cccnc2C1=O` [Compound 2]: the Kd stood at 0.000939 M.

Still in this data set, the particulars now being: supplement sheet, CORRECTED VALUES.
Molecule `CN(C(=O)c1ccon1)C1c2cccnc2C(=O)N1C` (stereo not drawn) [Compound 11] came in with an LE of 0.226.

Consider `COC(=O)N(C)C1c2cccnc2C(=O)N1C` (stereo not drawn) [Compound 7], for which the LE is on record as 0.2694.

Consider `O=C1c2ncccc2CN1Cc1ccccc1` [Compound 4], for which the LE came out at 0.3124.

`CN1Cc2cccnc2C1=O` [Compound 2]: the LE is reported as 0.377.

Still in this data set, the particulars now being: supplement sheet, PUBLISHED VALUES.
As for `CN(C(=O)c1ccon1)C1c2cccnc2C(=O)N1C` (stereo not drawn) [Compound 11], the LLE is listed as -0.6167.

In turn, `COC(=O)N(C)C1c2cccnc2C(=O)N1C` (stereo not drawn) [Compound 7] showed an LLE of -0.728.

`O=C1c2ncccc2CN1Cc1ccccc1` [Compound 4] showed an LLE of -0.9699.

For `CN1Cc2cccnc2C1=O` [Compound 2], the LLE is -1.358.

The next data set deals with T1, PaIspD. The experiment in a line: Fluorescence quenching (PaIspD). It counts as binding.
Conditions: not given
As for the experimental part:
Fluorescence quenching (PaIspD)
Quenching is expressed as (I0 – I) / I0 with I0 the intensity (at 332 nm) of fluorescence in absence of compound and I the intensity of fluorescence upon addition of compound. Inset, fluorescence emission spectra in the presence of increasing concentrations of compound. The concentration of PaIspD was kept at 2 µM during the assay, the compounds were tested in concentration ranges given below. The excitation wavelength was set at 286 nm, emission spectra were recorded between 300 nm and 380 nm. The data were fitted using Qtiplot software (qtiplot.com). A least square fit to a simple bimolecular equilibrium was used to estimate the Kd values. Each measurement was reproduced two times. The measurements were carried out in the following buffer: 50 mM Tris-Cl pH = 8, 50 mM NaCl, 1mM MgCl2.
Table S1. Concentration ranges used to determine Kd during the Fluorescence quenching assay.
For the molecule `CN(C(=O)c1ccon1)C1c2cccnc2C(=O)N1C` (stereo not drawn) [Compound 11], the affinity, expressed as Kd, was 301 ± 16 µM.

The molecule `O=C1c2ncccc2CN1Cc1ccccc1` [Compound 4] yielded a Kd of 391 ± 35 µM.

In turn, `CN1Cc2cccnc2C1=O` [Compound 2] showed an equilibrium dissociation constant (Kd) of 977 ± 59 µM.

By Km is commonly meant the concentration of substrate that gives half-maximal velocity. A word on the Kd: it is the constant that tells how readily two partners part at equilibrium. Read a high Kd as a looser complex.
